Source: patent US20220315968A1, “PEPTIDES AND METHODS FOR THE CARBON-CARBON BOND FORMATION” (Max-Planck-Gesellschaft zur Förderung der Wissenschaften …, priority 2019, published 2022)

Tests used:
YciA = biological target: T1, YciA (Escherichia coli, UniProt P0A8Z0); assay: YciA substrate screen (thioesterase activity towards oxalyl-CoA, formyl-CoA, mandelyl-CoA); assay type: biochemical, E. coli; conditions: 2 μM YciA, 0.5 mM CoA ester, 30° C., pH 6.8
T1 construct: His-tag (ASKA clone); made in house; host or cells: E. coli BL21 (DE3)
T1 sequence (P0A8Z0 whole entry): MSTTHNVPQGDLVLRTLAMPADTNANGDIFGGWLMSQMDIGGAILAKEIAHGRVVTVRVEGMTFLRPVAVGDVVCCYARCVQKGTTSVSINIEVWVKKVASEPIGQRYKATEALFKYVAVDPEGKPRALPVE
Experimental: 0.5 mM ADP, 0.15 mM ThDP and 25 mM benzaldehyde, 2 μM YciA (A) or no YciA (B). The reaction was started by adding either 0.5 mM formyl-CoA or 0.5 mM oxalyl-CoA or 0.5 mM mandelyl-CoA. Samples were taken after 0, 1, 5 and 30 minutes and analyzed with the LC-MS detection of CoA esters. CoA esters were quantified by comparison to synthetic standards of formyl-CoA, oxalyl-CoA and mandelyl-CoA, respectively. Error bars show standard deviation of two.
Thioesterase activity of YciA towards oxalyl-CoA, formyl-CoA and racemic mandelyl-CoA. […] 0.5 mM ADP, 0.15 mM ThDP and 25 mM benzaldehyde, 2 μM YciA (A) or no YciA (B). The reaction was started by adding either 0.5 mM formyl-CoA or 0.5 mM oxalyl-CoA or 0.5 mM mandelyl-CoA. Samples were taken after 0, 1, 5 and 30 minutes and analyzed with the LC-MS detection of CoA esters. CoA esters were quantified by comparison to synthetic standards of formyl-CoA, oxalyl-CoA and mandelyl-CoA, respectively.

OXCMe = OXCMe aldehyde and ketone screen (carboligation with formyl-CoA, LC-MS of CoA esters); conditions: 10 mM aldehyde, 1 mM formyl-CoA, 5 μM enzyme, 1 h, relative to the comparison of OXC and HACL, n.d. = product not detected
Experimental: Samples were diluted 1:10 in H2O. UPLC-high resolution MS of CoA esters was performed as described previously.^[5] CoA esters were analyzed using an Agilent 6550 iFunnel Q-TOF LC-MS system equipped with an electrospray ionization source set to positive ionization mode. Compounds were separated on a RP-18 column (50 mm×2.1 mm, particle size 1.7 μm, Kinetex EVO C18, Phenomenex) using a mobile phase system comprised of 50 mM ammonium formate pH 8.1 (A) and methanol (B). Chromatographic separation was carried out using the following gradient condition at a flow rate of 250 μl/min: 0 min 2.5% B; 2.5 min 2.5% B; 8 min 23% B; 10 min 80% B; 11 min 80%; 12 min 2.5% B; 12.5 min 0% B. The column oven was set to 40° C. and autosampler was maintained at 10° C. Standard injection volume was 1 μl. Capillary voltage was set at 3.5 kV and nitrogen gas was used as nebulizing (20 psig), drying (13 l/min, 225° C.) and sheath gas (12 l/min, 400° C.). […] The scan range for MS and MS/MS data is 100-1000 m/z and 50-1000 m/z respectively. Collision energy used for MS/MS fragmentation was 35 eV.
Unless noted otherwise, all LC-MS assays were carried out at 30° C. in reaction buffer consisting of 50 mM TES-KOH pH 6.8, 10 mM MgCl2. 0.5 mM ADP, 0.15 mM ThDP.
In reaction buffer, 1 mM formyl-CoA and 10 mM aldehyde (formaldehyde, acetaldehyde, glycolaldehyde, propionaldehyde, glyceraldehyde, glyoxylate, succinic semialdehyde, benzaldehyde, phenylacetaldehyde, and acetone) was mixed with 5 μM OXCMe or HACLHs. The reaction was stopped after 1 h and products analyzed with the CoA ester method described above.

HACLHs = biological target: T2, HACLHs (Homo sapiens, UniProt Q9UJ83); assay: Aldehyde and ketone screen with HACLHs (carboligation with formyl-CoA, LC-MS of CoA esters); assay type: biochemical; conditions: 10 mM aldehyde, 1 mM formyl-CoA, 5 μM enzyme, 1 h, relative to the comparison of OXC and HACL, n.d. = product not detected
T2 construct: His-tag (from vector pET-16b); made in house; host or cells: E. coli ArcticExpress (DE3)
T2 sequence (Q9UJ83 whole entry): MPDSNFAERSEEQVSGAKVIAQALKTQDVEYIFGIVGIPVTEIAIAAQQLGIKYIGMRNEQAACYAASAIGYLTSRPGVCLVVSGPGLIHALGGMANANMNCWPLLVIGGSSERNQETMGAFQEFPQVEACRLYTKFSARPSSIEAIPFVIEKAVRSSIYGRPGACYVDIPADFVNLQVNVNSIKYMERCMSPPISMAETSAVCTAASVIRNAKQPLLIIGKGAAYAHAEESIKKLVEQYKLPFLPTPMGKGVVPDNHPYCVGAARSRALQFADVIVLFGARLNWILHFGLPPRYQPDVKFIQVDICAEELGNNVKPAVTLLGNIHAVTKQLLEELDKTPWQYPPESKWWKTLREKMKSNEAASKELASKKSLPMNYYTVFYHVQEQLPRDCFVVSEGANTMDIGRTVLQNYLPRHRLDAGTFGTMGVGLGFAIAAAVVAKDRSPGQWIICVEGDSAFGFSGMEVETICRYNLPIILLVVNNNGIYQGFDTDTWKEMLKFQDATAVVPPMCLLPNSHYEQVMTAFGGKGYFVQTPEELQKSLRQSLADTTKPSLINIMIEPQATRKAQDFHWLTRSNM
Experimental: Samples were diluted 1:10 in H2O. […] Standard injection volume was 1 μl.
0.5 mM ADP, 0.15 mM ThDP.

[1] = system: OXS-OXCMe-YciA cascade with FRC; assay: OXS-OXCMe-Y497A-YciA cascade with FRC (α-hydroxy carboxylic acid from oxalate, one pot); assay type: biochemical; conditions: 2 μM FRC, 7.6 mM benzaldehyde or phenylacetaldehyde, 10 μM OXCMe-Y497A
Experimental: 0.5 mM ADP, 0.15 mM ThDP, 0.5 mM CoA, 10 mM ATP, 7.6 mM benzaldehyde or phenylacetaldehyde, 2 μM FRC, 2 μM YciA, 10 μM OXCMe-Y497A and 5 μM OXS. The reaction was started by adding 10 mM disodium oxalate. Samples were taken after 0, 15, 30, 60 min and analyzed with the mandelic acid derivatives method described above.
0.5 mM ADP, 0.15 mM ThDP, 0.5 mM CoA, 10 mM ATP, 7.6 mM benzaldehyde or phenylacetaldehyde, 2 μM FRC (Formyl-CoA:oxalate CoA-transferase from Oxalobacter formigenes EC 2.8.3.16), 2 μM YciA, 10 μM OXCMe-Y497A and 5 μM OXS were mixed and the reaction was initiated by the addition of 10 mM disodium oxalate. For the negative control FRC was omitted in a separate reaction. Samples were taken after 0, 15, 30, 60 min and analyzed with the mandelic acid derivatives method described above.

[2] = system: OXS-OXCMe-Y497A-YciA cascade; assay type: biochemical; conditions: 25 mM aldehyde, 10 mM disodium oxalate, 10 mM ATP, OXS 5 μM, OXCMe-Y497A 5 μM, YciA 2 μM; chiral HPLC
Experimental: Samples were diluted 1:10 in H2O. UPLC-high resolution MS analyses were performed on an Agilent 6550 iFunnel QTOF LC/MS system equipped with an electrospray ionization source to negative ionization mode. The analytes were isocratically chromatographed on a chiral column (100 mm×2.1 mm, particle size 2.7 μm, Poroshell 120 Chiral-T, Agilent) kept at ambient temperature using a mobile phase system comprised of 30:70 20 mM ammonium formate pH 4/methanol at a flow rate of 250 μl/min for 10 min. Samples were held at 10° C. and injection volume was 1 μl. […] MS data were acquired with a scan range of 100-1100 m/z. For quantification the calculated m/z value of [M-H]^− was used to obtain the extracted ion count from the total ion count.
0.5 mM ADP, 0.15 mM ThDP, 0.5 mM CoA, 10 mM ATP, 25 mM benzaldehyde, 5 μM OXS, 5 μM OXC and 2 μM YciA. The reaction was started by adding 10 mM oxalate. As negative controls, YciA, OXS or OXC were omitted in separate reactions. Samples were taken after 0, 0.05, 0.25, 0.66, 1, 2, 3, 22 hours and analyzed with the LC-MS detection of mandelic acid derivatives.
The aldehyde substrate screen of the OXS-OXCMe-Y497A-YciA cascade was carried out as described above (example 13), except that the aromatic aldehydes were prepared as 33 mM stocks in 20 vol % DMSO and diluted to final concentration of 25 mM into the assay. Samples were analyzed with the mandelic acid derivatives method described above. Mandelic acid (3a), 4-chloromandelic acid (3c), 2-chloromandelic acid (3d) and 3-phenyllactic acid (3b) were quantified by comparison to commercial standards.

HACLHs relative activity (HACLHs) [%] | SMILES | thioesterase activity of YciA towards the CoA ester (YciA) | OXCMe relative activity (OXCMe) [%] | increase of product formation rate by addition of FRC [1] [fold] | Conversion [%] [2] [%]
– | CC(C)(COP(=O)(O)OP(=O)(O)OC[C@H]1O[C@@H](n2cnc3c(N)ncnc32)[C@H](O)[C@@H]1OP(=O)(O)O)[C@@H](O)C(=O)NCCC(=O)NCCSC=O [formyl-CoA] | low activity | – | – | –
100 | CC(O)C(=O)SCCNC(=O)CCNC(=O)[C@H](O)C(C)(C)COP(=O)(O)OP(=O)(O)OC[C@H]1O[C@@H](n2cnc3c(N)ncnc32)[C@H](O)[C@@H]1OP(=O)(O)O (some centres unmarked) [lactyl-CoA] | – | 74 | – | –
100 | CCC(O)C(=O)SCCNC(=O)CCNC(=O)[C@H](O)C(C)(C)COP(=O)(O)OP(=O)(O)OC[C@H]1O[C@@H](n2cnc3c(N)ncnc32)[C@H](O)[C@@H]1OP(=O)(O)O (some centres unmarked) [2-hydroxybutyryl-CoA] | – | 5 | – | –
– | O=C(O)C(O)Cc1ccccc1 (racemic) [3-phenyllactic acid] | – | – | 2.3 | 58
100 | CC(C)(COP(=O)(O)OP(=O)(O)OC[C@H]1O[C@@H](n2cnc3c(N)ncnc32)[C@H](O)[C@@H]1OP(=O)(O)O)[C@@H](O)C(=O)NCCC(=O)NCCSC(=O)C(O)CCC(=O)O (some centres unmarked) [2-hydroxyglutaryl-CoA] | – | 1 | – | –
– | O=C(O)[C@@H](O)c1ccccc1Cl [2-chloromandelic acid, (S)-2-chloromandelic acid] | – | – | – | 93
– | O=C(O)C(O)c1ccc(Cl)cc1 (racemic) [4-chloromandelic acid] | – | – | – | 57
– | O=C(O)C(O)c1ccccc1 (centres unmarked) [mandelic acid] | – | – | 1.4 | 75
– | CC(C)(COP(=O)(O)OP(=O)(O)OC[C@H]1O[C@@H](n2cnc3c(N)ncnc32)[C@H](O)[C@@H]1OP(=O)(O)O)[C@@H](O)C(=O)NCCC(=O)NCCSC(=O)C(=O)O [oxalyl-CoA] | no activity | – | – | –
100 | CC(C)(COP(=O)(O)OP(=O)(O)OC[C@H]1O[C@@H](n2cnc3c(N)ncnc32)[C@H](O)[C@@H]1OP(=O)(O)O)[C@@H](O)C(=O)NCCC(=O)NCCSC(=O)C(O)CO (some centres unmarked) [glyceryl-CoA] | – | 1 | – | –
11 | CC(C)(COP(=O)(O)OP(=O)(O)OC[C@H]1O[C@@H](n2cnc3c(N)ncnc32)[C@H](O)[C@@H]1OP(=O)(O)O)[C@@H](O)C(=O)NCCC(=O)NCCSC(=O)CO [glycolyl-CoA] | – | 100 | – | –

SMILES | HACLHs relative activity (HACLHs) [%] | thioesterase activity of YciA towards the CoA ester (YciA) | OXCMe relative activity (OXCMe) [%] | increase of product formation rate by addition of FRC [1] [fold] | Conversion [%] [2] [%]
CC(C)(COP(=O)(O)OP(=O)(O)OCC1OC(n2cnc3c(N)ncnc32)C(O)C1OP(=O)(O)O)C(O)C(=O)NCCC(=O)NCCSC(=O)C(O)Cc1ccccc1 (centres unmarked) [phenyllactyl-CoA] | 100 | – | 22 | – | –
CC(C)(COP(=O)(O)OP(=O)(O)OC[C@H]1O[C@@H](n2cnc3c(N)ncnc32)[C@H](O)[C@@H]1OP(=O)(O)O)[C@@H](O)C(=O)NCCC(=O)NCCSC(=O)C(O)c1ccccc1 (some centres unmarked) [mandelyl-CoA] | 3 | relatively high | 100 | – | –
